Measured values published in the RepoRT retention time repository.

Assay: RP, Thermo Scientific Hypersil GOLD, 1.9 µm, 40 °C, 0.4 mL/min; A: water + 0.1% formic acid, pH 3; B: acetonitrile + 0.1% formic acid, pH 3; gradient (min/%B) 0/0 1/0 11/100 13/100 14/0 16/0
Details: stereoisomer not certain

| Structure (SMILES) | LC retention time [min] |
| --- | --- |
| CCC(O)C(=O)[O-] (stereo not given) [2-HYDROXYBUTYRATE] | 1.71 |
| CC(C)CC(O)C(=O)O (stereo not given) [2-Hydroxyisocaproic acid] | 6.31 |
| CC(C)C(O)(CC(=O)O)C(=O)O (stereo not given) [2-Isopropylmalic acid] | 4.79 |
| O=C(O)CCCC(=O)C(=O)O [2-OXOADIPATE] | 1.05 |
| CCC(=O)C(=O)[O-] [2-OXOBUTANOATE] | 9.98 |
| CCCCC(O)C(=O)O (stereo not given) [2-hydroxycaproic acid] | 5.43 |
| CC(C)(CC(=O)O)CC(=O)O [3-3-Dimethylglutaric acid] | 5.04 |
| OCC(O)c1ccc(O)c(O)c1 (stereo not given) [3-4-DIHYDROXYPHENYLGLYCOL] | 0.92 |
| NC(Cc1cc(I)c(Oc2ccc(O)cc2)c(I)c1)C(=O)O [3-5-DIIODO-L-THYRONINE] | 6.31 |
| O=C(O)c1cc(O)cc(O)c1 [3-5-Dihydroxybenzoic acid] | 3.57 |
| Nc1cc([O-])cc(C(=O)O)c1 [3-AMINO-5-HYDROXYBENZOATE] | 0.81 |
| CC(O)(CC(=O)O)CC(=O)O [3-HYDROXYMETHYLGLUTARATE] | 1.48 |
| COc1cc(CCN)ccc1O [3-METHOXYTYRAMINE] | 2.47 |
| Cn1cnc(=N)c2[nH]cnc21 [3-METHYLADENINE] | 0.8 |
| Cn1cncc1CCN [3-METHYLHISTAMINE] | 0.57 |
| CC(CCC(=O)O)CC(=O)O (stereo not given) [3-Methyladipic acid] | 5.01 |
| CC(C)=CC(=O)OC(CC(=O)[O-])C[N+](C)(C)C [3-Methylcrotonyl-L-carnitine] | 4.71 |
| Cc1cccnc1 [3-Methylpyridine (3-Picoline)] | 0.82 |
| Cn1c(=O)[nH]c(=O)c2[nH]cnc21 [3-Methylxanthine] | 2.61 |
| NC(CS(=O)O)C(=O)O (stereo not given) [3-SULFINOALANINE] | 0.67 |

| Structure (SMILES) | LC retention time [min] |
| --- | --- |
| CC12CCC3C(CC=C4CC(O)CCC43C)C1CCC2=O (stereo not given) [3-b-Hydroxyandrost-5-en-17-one (Dehydroepiandrosterone)] | 4.86 |
| CC(C)C(C(=O)O)C(O)C(=O)O (stereo not given) [3-isopropylmalic acid] | 4.68 |
| NC(N)=NCCCC(=O)O [4-GUANIDINOBUTANOATE] | 0.84 |
| O=Cc1ccc(O)cc1 [4-HYDROXYBENZALDEHYDE] | 5.13 |
| O=C(O)Cc1cnc[nH]1 [4-IMIDAZOLEACETATE] | 0.67 |
| Cc1ccncc1 [4-Methylpyridine (4-Picoline)] | 0.87 |
| Cc1ncc(CO)c(C(=O)O)c1O [4-PYRIDOXATE] | 1.73 |
| CC1OC(n2cnc3c(N)ncnc32)C(O)C1O (stereo not given) [5'-DEOXYADENOSINE] | 3.66 |
| Cc1cc2nc[nH]c2cc1C [5-6 DIMETHYLBENZIMIDAZOLE] | 5.05 |
| NCC(=O)CCC(=O)O [5-AMINOLEVULINATE] | 0.64 |
| NCCCCC(=O)O [5-AMINOPENTANOATE] | 0.71 |
| Nc1cncc(C(=O)O)c1 [5-Aminopyridine-3-carboxylic acid] | 0.74 |
| NCC(O)CCC(N)C(=O)O (stereo not given) [5-HYDROXYLYSINE] | 0.57 |
| O=c1[nH]cc(CO)c(=O)[nH]1 [5-HYDROXYMETHYLURACIL] | 0.82 |
| Oc1ccc2[nH]ccc2c1 [5-Hydroxyindole] | 4.72 |
| O=C(O)c1cncc(O)c1 [5-Hydroxynicotinic acid] | 0.83 |
| Cc1cnc(=O)[nH]c1N [5-METHYLCYTOSINE] | 0.7 |
| O=C1CCCCO1 [5-VALEROLACTONE] | 6.54 |
| CC(CCC(=O)O)C1CCC2C3CCC4CC(=O)CCC4(C)C3CCC12C (stereo not given) [5b-cholanic acid-3-ONE] | 10.7 |
| CC(CCC(=O)O)C1CCC2C3C(O)C(O)C4CC(O)CCC4(C)C3CCC12C (stereo not given) [5b-cholanic acid-3a-6a-7a-TRIOL] | 7.96 |

| Structure (SMILES) | LC retention time [min] |
| --- | --- |
| CC(CCC(=O)O)C1CCC2C3CCC4CC(O)CCC4(C)C3CC(=O)C12C (stereo not given) [5b-cholanic acid-3a-OL-12-ONE] | 8.76 |
| NCCc1cc(O)c(O)cc1O [6-HYDROXYDOPAMINE] | 0.77 |
| O=C(O)c1ccc(=O)[nH]c1 [6-HYDROXYNICOTINATE] | 1.5 |
| CC(O)C(O)C1=Nc2c(nc(N)[nH]c2=O)NC1 [7-8-Dihydro-L-biopterin] | 0.82 |
| Cn1c[n+](C2OC(CO)C(O)C2O)c2nc(N)[nH]c(=O)c21 (stereo not given) [7-Methylguanosine] | 0.83 |
| Cn1cnc2[nH]c(=O)[nH]c(=O)c21 [7-Methylxanthine] | 2.15 |
| Cn1cnc2nc(N)[nH]c(=O)c21 [7-methylguanine] | 0.82 |
| O=C(O)CCCCCCCCCO [10-HYDROXYDECANOATE] | 6.79 |
| CC(=O)C1(O)CCC2C3CC=C4CC(O)CCC4(C)C3CCC21C (stereo not given) [17a-Hydroxypregnenolone] | 0.67 |
| CC(=O)C1(O)CCC2C3CCC4=CC(=O)CCC4(C)C3CCC21C (stereo not given) [17a-Hydroxyprogesterone] | 8.44 |
| CCCCCCCCC=CCCCCCCCC(=O)OCC(O)COP(=O)([O-])OCC[N+](C)(C)C (stereo not given) [18-1_LysoPC] | 0.61 |
| CC(=O)C1(O)CCC2C3CCC4=CC(=O)CCC4(C)C3C(O)CC21C (stereo not given) [21-Deoxycortisol] | 7.35 |
| CC(CCCC(C)(C)O)C1CCC2C3CC=C4CC(O)CCC4(C)C3CCC12C (stereo not given) [25-HYDROXYCHOLESTEROL] | 11.9 |
| NCCP(=O)(O)O [(2-AMINOETHYL)PHOSPHONATE] | 0.63 |
| C=C(C)C1CC=C(C)C(=O)C1 [(R)-(-)-Carvone] | 8.19 |
| C=C(C)C1CC=C(CO)CC1 [(S)-(-)-Perillyl alcohol] | 8.07 |
| Nc1ncnc2nc[nH]c12 [ADENINE] | 0.74 |
| Nc1ncnc2c1ncn2C1OC(CO)C2OP(=O)(O)OC21 (stereo not given) [ADENOSINE 2'-3'-CYCLIC PHOSPHATE] | 0.83 |
| Nc1ncnc2c1ncn2C1OC(COP(=O)(O)O)C(O)C1O (stereo not given) [ADENOSINE-MONOPHOSPHATE] | 0.77 |
| Nc1ncnc2c1ncn2C1OC(CO)C(O)C1O (stereo not given) [ADENOSINE] | 0.86 |

Continued, values first:

| LC retention time [min] | Structure (SMILES) |
| --- | --- |
| 1.6 | O=c1cccc[nH]1 [2-HYDROXYPYRIDINE] |
| 4.4 | CC(CCC(=O)O)C(=O)O (stereo not given) [2-METHYLGLUTARATE] |
| 5.31 | Cc1ccccc1C(=O)NCC(=O)O [2-Methylhippuric acid (ortho-Methylhippuric acid)] |
| 0.69 | Cc1ncccc1C(N)=O [2-Methylnicotinamide] |
| 0.83 | NC(C(=O)O)c1ccccc1 (stereo not given) [2-Phenylglycine] |
| 4.64 | O=C(O)c1ccc2ccccc2n1 [2-QUINOLINECARBOXYLATE] |
| 6.35 | O=C(O)C(=O)CCc1ccccc1 [2-oxo-4-phenyl-butyric acid] |
| 0.91 | O=C(O)C(O)c1ccc(O)c(O)c1 (stereo not given) [3-4 DIHYDROXYMANDELATE] |
| 0.82 | NC(Cc1ccc(O)c(O)c1)C(=O)O [3-4-DIHYDROXY-L-PHENYLALANINE] |
| 3.49 | O=C(O)c1ccc(O)c(O)c1 [3-4-DIHYDROXYBENZOATE] |
| 4.32 | O=C(O)Cc1ccc(O)c(O)c1 [3-4-DIHYDROXYPHENYLACETATE] |
| 0.84 | O=S(=O)(O)c1ccc(O)c(O)c1 [3-4-dihydroxybenzenesulfonic acid] |
| 4.83 | O=C(O)CCc1ccc(O)cc1O [3-(2-4-Dihydroxyphenyl)propionic acid] |
| 5.92 | O=C([O-])CCc1ccccc1O [3-(2-HYDROXYPHENYL)PROPANOATE] |
| 0.82 | Nc1cc(C(=O)O)ccc1[O-] [3-AMINO-4-HYDROXYBENZOATE] |
| 3.43 | Nc1c(O)cccc1C(=O)O [3-HYDROXYANTHRANILATE] |
| 5.4 | O=Cc1cccc(O)c1 [3-HYDROXYBENZALDEHYDE] |
| 5.04 | O=C(O)c1cccc(O)c1 [3-HYDROXYBENZOATE] |

| LC retention time [min] | Structure (SMILES) |
| --- | --- |
| 5.11 | O=C(O)Cc1cccc(O)c1 [3-HYDROXYPHENYLACETATE] |
| 2.66 | O=C(O)C(O)c1cccc(O)c1 (stereo not given) [3-Hydroxymandelic acid] |
| 4.64 | NC(=O)c1ncccc1O [3-Hydroxypicolinamide] |
| 2.15 | COc1cc(C(O)C(=O)O)ccc1O (stereo not given) [3-METHOXY-4-HYDROXYMANDELATE] |
| 6.25 | CC1C(=O)Nc2ccccc21 (stereo not given) [3-METHYL-2-OXINDOLE] |
| 3.77 | N[C@@H](Cc1ccc(O)c([N+](=O)[O-])c1)C(=O)O [3-NITRO-L-TYROSINE] |
| 1.69 | CC(=O)NCCCC(=O)O [4-ACETAMIDOBUTANOATE] |
| 3.29 | Nc1ccc(C(=O)O)cc1 [4-AMINOBENZOATE] |
| 5.43 | O=C(O)C=Cc1ccc(O)cc1 [4-COUMARATE] |
| 0.67 | N[C@H](C(=O)O)c1ccc(O)cc1 [4-HYDROXY-L-PHENYLGLYCINE] |
| 4.88 | O=C(O)Cc1ccc(O)cc1 [4-Hydroxyphenylacetic acid] |
| 6.6 | Cc1ccc(O)c(O)c1 [4-METHYLCATECHOL] |
| 1.29 | O=C(O)c1ccnc2ccccc12 [4-QUINOLINECARBOXYLIC ACID] |
| 1.99 | NC(Cc1c[nH]c2ccc(O)cc12)C(=O)O (stereo not given) [5-HYDROXYTRYPTOPHAN] |
| 3.49 | O=C(O)c1ccc(CO)o1 [5-hydroxymethyl-2-furancarboxylic acid] |
| 0.87 | Nc1ccc(C(=O)O)cn1 [6-Aminopyridine-3-carboxylic acid] |
| 4.1 | C/C(=C\C(=O)O)CC(=O)O [(E)-3-Methylglutaconic acid] |
